In ChEMBL document CHEMBL1201862, “PubChem BioAssay data set” (2004):
Blank lines part the entries; values can stand above or below the molecule they belong to. The source made the active and inactive calls.

Assays:
[1] = tested on: INS1; test: beta cell apoptosis inhibitors, cytokine rescue, dose response, luminescence, retest (AID 449756); type: functional, cell-based; details: Rattus norvegicus;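 further: cell death triggered by IL-1 beta plus TNF-alpha plus IFN-gamma mixture; protective hits raise ATP signal compared with cytokine alone wells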
[2] = molecular target: Cytochrome P450 2C19 (Homo sapiens, UniProt P33261); test: Cytochrome panel assay with activity outcomes. Panel member name: p450-cyp2c19 Compounds with AC50 equal or less than 10 uM are considered active; type: functional; details: read-out: AC50
Cytochrome P450 2C19, sequence (P33261 whole entry): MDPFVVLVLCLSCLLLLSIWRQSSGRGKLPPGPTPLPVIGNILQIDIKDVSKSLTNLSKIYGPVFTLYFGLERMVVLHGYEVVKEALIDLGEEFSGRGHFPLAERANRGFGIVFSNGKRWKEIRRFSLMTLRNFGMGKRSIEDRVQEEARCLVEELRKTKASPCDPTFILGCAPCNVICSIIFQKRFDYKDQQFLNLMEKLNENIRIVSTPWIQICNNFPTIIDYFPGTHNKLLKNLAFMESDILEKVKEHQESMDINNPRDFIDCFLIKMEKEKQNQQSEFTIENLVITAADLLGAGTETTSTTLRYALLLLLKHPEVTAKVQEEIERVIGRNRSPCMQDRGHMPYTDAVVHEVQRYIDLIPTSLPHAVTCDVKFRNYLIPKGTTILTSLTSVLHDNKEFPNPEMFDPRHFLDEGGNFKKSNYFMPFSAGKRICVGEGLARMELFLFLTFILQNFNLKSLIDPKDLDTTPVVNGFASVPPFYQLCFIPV

[3] = molecular target: Cytochrome P450 2C9 (Homo sapiens, UniProt P11712)
Cytochrome P450 2C9, sequence (P11712 whole entry): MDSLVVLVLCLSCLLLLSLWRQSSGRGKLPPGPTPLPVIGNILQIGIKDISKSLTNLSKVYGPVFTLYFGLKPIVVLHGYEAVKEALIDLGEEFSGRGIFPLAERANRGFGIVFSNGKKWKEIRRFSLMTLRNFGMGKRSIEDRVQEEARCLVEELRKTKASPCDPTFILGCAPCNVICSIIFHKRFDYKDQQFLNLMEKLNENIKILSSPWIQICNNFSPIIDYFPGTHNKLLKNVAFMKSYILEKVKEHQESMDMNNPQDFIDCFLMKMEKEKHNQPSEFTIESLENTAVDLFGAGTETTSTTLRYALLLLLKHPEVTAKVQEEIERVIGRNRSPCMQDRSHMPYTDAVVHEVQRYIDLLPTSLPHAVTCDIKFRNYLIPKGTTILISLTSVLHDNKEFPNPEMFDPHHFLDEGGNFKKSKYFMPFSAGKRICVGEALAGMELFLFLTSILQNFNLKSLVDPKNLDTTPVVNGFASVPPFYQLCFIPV

[4] = molecular target: T1, Heat shock factor protein 1 (Mus musculus, UniProt P38532); test: inhibition of MG132-induced HSE-luciferase signal, confirmation, cell-based, NIH3T3, luminescence, dose retest (AID 2382); type: functional;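 further: NIH3T3 fibroblasts with HSF1-driven luciferase reporter stressed by proteasome inhibitor MG132; luminescence from HSF1-driven luciferase expression after 8 hours of MG132 stress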
T1 sequence (P38532 whole entry): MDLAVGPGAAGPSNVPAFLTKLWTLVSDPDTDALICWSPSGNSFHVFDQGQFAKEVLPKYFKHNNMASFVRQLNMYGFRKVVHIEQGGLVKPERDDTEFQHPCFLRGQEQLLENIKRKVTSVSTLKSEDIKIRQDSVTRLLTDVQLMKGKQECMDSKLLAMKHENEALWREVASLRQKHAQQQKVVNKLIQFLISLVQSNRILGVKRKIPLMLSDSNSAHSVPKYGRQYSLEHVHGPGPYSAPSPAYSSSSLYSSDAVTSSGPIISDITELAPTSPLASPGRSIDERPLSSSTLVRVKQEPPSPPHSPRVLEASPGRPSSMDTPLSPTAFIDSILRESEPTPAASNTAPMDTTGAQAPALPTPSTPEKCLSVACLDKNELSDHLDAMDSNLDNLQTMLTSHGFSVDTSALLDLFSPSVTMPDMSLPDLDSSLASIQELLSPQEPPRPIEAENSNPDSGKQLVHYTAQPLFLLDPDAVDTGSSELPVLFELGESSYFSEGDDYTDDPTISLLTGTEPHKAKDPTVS

[5] = molecular target: T2, Rac GTPase-activating protein 1 (Homo sapiens, UniProt Q9H0H5); test: MgcRacGAP GTPase-activating activity inhibitors, confirmation, biochemical, ADP Hunter fluorescence, primary and confirmatory (AID 624330); type: functional
T2 sequence (Q9H0H5 whole entry): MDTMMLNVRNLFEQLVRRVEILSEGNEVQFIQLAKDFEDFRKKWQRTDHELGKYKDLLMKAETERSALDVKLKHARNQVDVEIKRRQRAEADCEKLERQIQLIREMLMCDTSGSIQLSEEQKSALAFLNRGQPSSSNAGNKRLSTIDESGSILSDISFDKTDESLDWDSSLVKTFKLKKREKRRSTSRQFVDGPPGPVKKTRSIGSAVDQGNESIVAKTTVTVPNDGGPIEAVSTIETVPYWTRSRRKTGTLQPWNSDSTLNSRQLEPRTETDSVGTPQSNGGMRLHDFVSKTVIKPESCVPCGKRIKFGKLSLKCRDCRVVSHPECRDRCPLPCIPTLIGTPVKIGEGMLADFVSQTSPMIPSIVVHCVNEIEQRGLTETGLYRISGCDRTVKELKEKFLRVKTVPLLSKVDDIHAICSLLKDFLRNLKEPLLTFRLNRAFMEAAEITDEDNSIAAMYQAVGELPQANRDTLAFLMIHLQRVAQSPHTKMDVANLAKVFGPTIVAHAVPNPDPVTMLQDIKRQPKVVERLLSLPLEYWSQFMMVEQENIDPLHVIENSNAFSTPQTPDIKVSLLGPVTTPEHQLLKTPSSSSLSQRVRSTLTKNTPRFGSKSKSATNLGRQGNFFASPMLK

[6] = molecular target: T3, Corticotropin-releasing factor receptor 2/Corticotropin-releasing factor-binding protein (Homo sapiens, UniProt P24387+Q13324); test: activators of CRF receptor 2 with binding protein – uHTS hits, confirmation (AID 602473); type: functional; details: read-out: EC50_Mean
T3 sequence (Q13324 whole entry): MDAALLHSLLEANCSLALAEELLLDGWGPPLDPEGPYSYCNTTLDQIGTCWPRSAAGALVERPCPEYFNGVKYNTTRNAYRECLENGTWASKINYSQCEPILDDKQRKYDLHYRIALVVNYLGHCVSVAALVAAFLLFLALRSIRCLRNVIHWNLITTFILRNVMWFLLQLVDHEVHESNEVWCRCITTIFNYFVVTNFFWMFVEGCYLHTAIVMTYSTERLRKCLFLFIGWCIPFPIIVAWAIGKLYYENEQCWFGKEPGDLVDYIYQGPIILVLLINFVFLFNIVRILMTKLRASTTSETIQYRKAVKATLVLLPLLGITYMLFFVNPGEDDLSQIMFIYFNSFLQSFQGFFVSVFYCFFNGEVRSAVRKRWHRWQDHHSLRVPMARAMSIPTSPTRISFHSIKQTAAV
T3 sequence (P24387 whole entry): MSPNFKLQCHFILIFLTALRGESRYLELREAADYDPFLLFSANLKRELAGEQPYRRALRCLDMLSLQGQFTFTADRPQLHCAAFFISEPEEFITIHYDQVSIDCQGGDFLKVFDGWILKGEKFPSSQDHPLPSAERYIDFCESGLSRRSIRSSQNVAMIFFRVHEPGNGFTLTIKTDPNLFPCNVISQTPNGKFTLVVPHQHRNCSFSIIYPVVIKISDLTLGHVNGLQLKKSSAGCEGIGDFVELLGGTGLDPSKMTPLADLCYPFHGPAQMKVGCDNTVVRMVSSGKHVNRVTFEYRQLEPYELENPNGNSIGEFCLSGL

[7] = molecular target: T3, Corticotropin-releasing factor receptor 2/Corticotropin-releasing factor-binding protein; test: Dose Response confirmation of uHTS hits for small molecule antagonists of the CRF-binding protein and CRF-R2 receptor complex.; type: functional; details: read-out: IC50_Mean
[8] = inhibitors of intracellular T. cruzi replication, confirmation, NIH3T3 host cells, beta-gal luminescence (AID 2044); type: functional, cell-based;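 further: intracellular parasites grown in NIH/3T3 mouse fibroblasts as host cells; luminescent beta-galactosidase reporter signal from transgenic T. cruzi replicating inside host cells; inhibitors lower the luminescence signal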
[9] = cytotoxicity toward NIH3T3 fibroblasts, dose response, counter-screen, cell-based, ATP luminescence, mouse fibroblasts (AID 2010); type: functional;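 further: cells exposed to compound for about 90 hours before reading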
[10] = molecular target: T4, Cytochrome P450 1A2 (Homo sapiens, UniProt P05177);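 further: PubChem cytochrome P450 panel assay, CYP1A2 panel member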
T4 sequence (P05177 whole entry): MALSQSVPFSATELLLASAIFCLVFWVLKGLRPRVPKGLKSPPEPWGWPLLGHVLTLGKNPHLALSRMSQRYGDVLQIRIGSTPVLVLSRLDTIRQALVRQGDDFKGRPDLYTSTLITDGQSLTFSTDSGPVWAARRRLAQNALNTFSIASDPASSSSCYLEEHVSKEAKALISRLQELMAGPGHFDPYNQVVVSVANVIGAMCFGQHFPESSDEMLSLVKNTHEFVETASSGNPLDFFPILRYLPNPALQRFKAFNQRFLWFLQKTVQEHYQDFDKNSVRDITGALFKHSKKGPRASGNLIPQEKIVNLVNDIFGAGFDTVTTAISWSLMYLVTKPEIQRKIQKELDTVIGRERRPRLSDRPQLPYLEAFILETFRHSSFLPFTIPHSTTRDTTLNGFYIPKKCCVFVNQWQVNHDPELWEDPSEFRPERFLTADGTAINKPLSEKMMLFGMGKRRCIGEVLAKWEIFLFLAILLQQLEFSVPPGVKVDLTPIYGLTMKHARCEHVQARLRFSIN

Structure (SMILES): Cc1ccc(N(CC(=O)Nc2cc(C)cc(C)c2)S(=O)(=O)c2c(C)noc2C)cc1
AC50 [1]: 8.43 µM (active)

Structure (SMILES): Cc1ccc(NC(S)=NCc2ccccn2)cc1
EC50 [6]: > 53 µM (inactive)
IC50 [7]: > 47.1 µM (inactive)

Structure (SMILES): COc1cccc(C2CC(c3ccccc3)n3ncnc3N2)c1 (stereo unspecified)
EC50 [4]: > 195 µM (not active)

Structure (SMILES): CC(O)CNCCCOc1ccc(Cl)cc1C(C)(C)C (stereo unspecified)
EC50 [4]: 142 µM (active)

Structure (SMILES): FC(F)(F)c1ccccc1N=C(S)N1CCN(Cc2ccc3c(c2)OCO3)CC1
AC50 [1]: 7.02 µM (active)

Structure (SMILES): O=C(c1cccc(Cl)c1)N1CCN(Cc2ccncc2)CC1
IC50 [5]: 99.7 µM (active)

Structure (SMILES): COCCNCC(=O)Nc1ccc(C)c(S(=O)(=O)N2CCCCC2)c1
IC50 [5]: 132 µM (active)

Structure (SMILES): O=C(Nc1ccc(N2CCN(Cc3ccccc3Cl)CC2)cc1)c1cccnc1
AC50 [1]: 4.75 µM (active)

Structure (SMILES): COc1ccc(C(=O)COC(=O)CCN2C(=O)C3C4CC(C(Br)C4Br)C3C2=O)cc1 (stereo unspecified)
EC50 [4]: > 195 µM (not active)

Structure (SMILES): Cc1ccc(S(=O)(=O)NC(C)(C)CSc2nncn2N)cc1
EC50 [4]: > 195 µM (not active)

Structure (SMILES): CC(C)n1cc(CN2CCCC(CNS(=O)(=O)c3cccc4cccnc34)C2)cn1 (stereo unspecified)
EC50 [8]: 0.798 µM (active)
EC50 [9]: > 60 µM (not active)
EC50 [4]: > 195 µM (not active)

Structure (SMILES): CC(=O)Nc1cc[n+](C(C)C(=O)c2ccccc2)cc1 (stereo unspecified)
EC50 [4]: > 195 µM (not active)

Structure (SMILES): CC1CCCN(C(=O)CSc2nnc(-c3ccc(O)cc3)o2)C1 (stereo unspecified)
EC50 [4]: > 195 µM (not active)

Structure (SMILES): CCOC(=O)NC(O)C(=O)c1cccs1 (stereo unspecified)
EC50 [6]: > 53 µM (inactive)
IC50 [7]: > 47.1 µM (inactive)

Structure (SMILES): COc1ccc(-[n+]2cc(-c3ccccc3)n3c2CCCCC3)cc1
EC50 [8]: 0.453 µM (active)
AC50 [1]: 1.66 µM (active)
EC50 [9]: > 30 µM (not active)

Structure (SMILES): COc1cccc(Cn2c(=O)c(-c3cn(C)c4ccccc34)nc3cnc(OC)nc32)c1
AC50 [10]: 15.8 µM (inconclusive)
AC50 [3]: 12.6 µM (inconclusive)

Structure (SMILES): CCc1ccc2nc3sc(C(=O)O)cc3cc2c1
IC50 [5]: 122 µM (active)

Structure (SMILES): CCOC(=O)c1nc(S)n(Cc2ccccc2)c1C(=O)OCC
IC50 [5]: 49.6 µM (active)

Structure (SMILES): COc1ccc(S(=O)(=O)N2CCCCCC2)cc1C(=O)NCCc1ccccc1
EC50 [6]: > 53 µM (inactive)
IC50 [7]: > 47.1 µM (inactive)

Structure (SMILES): O=C(C1CCN(C2CCN(CC3CC=CCC3)CC2)CC1)N1CCOCC1 (stereo unspecified)
EC50 [6]: > 53 µM (inactive)
IC50 [7]: > 47.1 µM (inactive)

Structure (SMILES): O=C(O)CC1SC(Nc2ccc(O)cc2)=NC1=O (stereo unspecified)
IC50 [5]: 118 µM (active)

Structure (SMILES): COc1ccc(C(=O)N/N=C/c2ccccc2OC(=O)c2ccccc2)cc1
AC50 [1]: 2.35 µM (active)

Structure (SMILES): COc1ccc(NC2CCCN(C(=O)c3ccccc3-c3ncc[nH]3)C2)cc1 (stereo unspecified)
IC50 [5]: 146 µM (active)

Structure (SMILES): Cc1[nH]n(CCC#N)c(=O)c1CC(=O)N1CCN(c2ccccc2)CC1
EC50 [6]: > 53 µM (inactive)
IC50 [7]: > 47.1 µM (inactive)
EC50 [4]: > 195 µM (not active)

Structure (SMILES): CN(C)CCO/N=C(\c1ccc(Br)cc1)c1cccnc1
IC50 [5]: 141 µM (active)

Structure (SMILES): CN(C)c1ccc(/C=N/NC(=O)c2cccc(N3CCCC3=O)c2)cc1
EC50 [4]: > 195 µM (not active)

Structure (SMILES): CC1(C)CC(=O)C(/C=N/c2ccc(N)cc2)=C(O)C1
IC50 [5]: 46.9 µM (active)

Structure (SMILES): COc1cc(/C=N/n2c(C)nc3ccccc3c2=O)ccc1O
IC50 [5]: 48.5 µM (active)

Structure (SMILES): Cc1ccc2c(c1)N(C)/C(=C/c1cccc[n+]1CCO)S2
AC50 [1]: 4.37 µM (active)

Continued, values first:

AC50 [2]: 0.0794 µM (inconclusive)
AC50 [3]: 3.98 µM (inconclusive)
Structure (SMILES): CCCNC(=O)OC[C@@H]1O[C@H](CCO/N=C(\C)CCC(=O)OC[C@@H]2O[C@H](c3ccccc3)C=C[C@@H]2Oc2ccc(OC)cc2)C=C[C@@H]1Oc1ccc(OC)cc1

EC50 [4]: > 195 µM (not active)
Structure (SMILES): COC(=O)c1nc(Cl)c(Cl)c(N)c1Cl

IC50 [5]: 40.3 µM (active)
Structure (SMILES): O=C(O)CCCn1c(=S)[nH]c2c(sc3ccc([N+](=O)[O-])cc32)c1=O

EC50 [6]: > 53 µM (inactive)
IC50 [7]: > 47.1 µM (inactive)
Structure (SMILES): NS(=O)(=O)c1ccc(NC(S)=Nc2ccc(F)c(F)c2)cc1

EC50 [4]: 30.2 µM (active)
Structure (SMILES): COc1ccc(-n2cccc2/C=C2/NC(=O)N(c3cccc(Cl)c3)C2=O)cc1

EC50 [6]: > 53 µM (inactive)
IC50 [7]: > 47.1 µM (inactive)
Structure (SMILES): CC(C)(C)c1ccc(SCCc2cccnc2)cc1

EC50 [6]: > 53 µM (inactive)
IC50 [7]: > 47.1 µM (inactive)
Structure (SMILES): Cc1ccc(S(=O)(=O)N(CC(=O)NCc2ccco2)Cc2ccccc2F)cc1

EC50 [4]: > 195 µM (not active)
Structure (SMILES): CC(C)C[C@H](NC(=O)N1CCCCCC1)C(=O)O

EC50 [6]: > 53 µM (inactive)
IC50 [7]: > 47.1 µM (inactive)
Structure (SMILES): Cc1nn(C)c(Oc2ccc(Cl)cc2)c1C(=O)O

EC50 [4]: 6.77 µM (active)
IC50 [5]: 108 µM (active)
Structure (SMILES): c1cc(CNc2ccc3c(c2)OCCO3)ccn1

AC50 [10]: 12.6 µM (inconclusive)
AC50 [3]: 17.8 µM (inconclusive)
Structure (SMILES): N=C(N)Nc1nc(CCN2C(=O)c3ccccc3C2=O)cs1

EC50 [6]: > 53 µM (inactive)
IC50 [7]: > 47.1 µM (inactive)
Structure (SMILES): COc1c(Cl)cc(Cl)cc1CNc1ccc(S(N)(=O)=O)cc1

EC50 [4]: > 195 µM (not active)
Structure (SMILES): O=C(Nc1cccc(Cl)c1)N1CCOCC1
